Legend:
Format in all cases: functional
[1] = tested on: SK-MEL-28; experiment: Cytotoxicity against Homo sapiens (human) SK-MEL-28 cells assessed as growth inhibition at 10 uM after 48 hr by coulter counter analysis; details: SK-MEL-28, 48 h, read-out: GI
[2] = tested on: SK-MEL-2; experiment: Cytotoxicity against Homo sapiens (human) SK-MEL-2 cells assessed as growth inhibition at 10 uM after 48 hr by coulter counter analysis; details: SK-MEL-2, 48 h, read-out: GI
[3] = tested on: MDA-MB-435; experiment: Cytotoxicity against Homo sapiens (human) MDA-MB-435 cells assessed as growth inhibition at 10 uM after 48 hr by coulter counter analysis; details: MDA-MB-435, 48 h, read-out: GI
[4] = tested on: Malme-3M; experiment: Cytotoxicity against Homo sapiens (human) MALME-3M cells assessed as growth inhibition at 10 uM after 48 hr by coulter counter analysis; details: read-out: GI
[5] = tested on: SNB-19; experiment: Cytotoxicity against Homo sapiens (human) SNB19 cells assessed as growth inhibition at 10 uM after 48 hr by coulter counter analysis; details: SNB-19, 48 h, read-out: GI
[6] = tested on: SF-539; experiment: Cytotoxicity against Homo sapiens (human) SF539 cells assessed as growth inhibition at 10 uM after 48 hr by coulter counter analysis; details: SF-539, 48 h, read-out: GI
[7] = tested on: OVCAR-3; experiment: Cytotoxicity against Homo sapiens (human) OVCAR3 cells assessed as growth inhibition at 10 uM after 48 hr by coulter counter analysis; details: OVCAR-3, 48 h, read-out: GI
[8] = tested on: UACC-257; experiment: Cytotoxicity against Homo sapiens (human) UACC257 cells assessed as growth inhibition at 10 uM after 48 hr by coulter counter analysis; details: UACC-257, 48 h, read-out: GI
[9] = tested on: SK-MEL-5; experiment: Cytotoxicity against Homo sapiens (human) SK-MEL-5 cells assessed as growth inhibition at 10 uM after 48 hr by coulter counter analysis; details: SK-MEL-5, 48 h, read-out: GI
[10] = tested on: T47D; experiment: Cytotoxicity against Homo sapiens (human) T47D cells assessed as growth inhibition at 10 uM after 48 hr by coulter counter analysis; details: read-out: GI
[11] = tested on: BT-549; experiment: Cytotoxicity against Homo sapiens (human) BT549 cells assessed as growth inhibition at 10 uM after 48 hr by coulter counter analysis; details: BT-549, 48 h, read-out: GI
[12] = tested on: DU-145; experiment: Cytotoxicity against Homo sapiens (human) DU145 cells assessed as growth inhibition at 10 uM after 48 hr by coulter counter analysis; details: DU-145, 48 h, read-out: GI
[13] = tested on: SN12C; experiment: Cytotoxicity against Homo sapiens (human) SN12C cells assessed as growth inhibition at 10 uM after 48 hr by coulter counter analysis; details: read-out: GI
[14] = tested on: A498; experiment: Cytotoxicity against Homo sapiens (human) A498 cells assessed as growth inhibition at 10 uM after 48 hr by coulter counter analysis; details: A498, 48 h, read-out: GI
[15] = Cytotoxicity against Homo sapiens (human) NCI-ADR-RES cells assessed as growth inhibition at 10 uM after 48 hr by coulter counter analysis; details: read-out: GI
[16] = tested on: OVCAR-5; experiment: Cytotoxicity against Homo sapiens (human) OVCAR5 cells assessed as growth inhibition at 10 uM after 48 hr by coulter counter analysis; details: OVCAR-5, 48 h, read-out: GI
[17] = tested on: HL-60(TB); experiment: Cytotoxicity against Homo sapiens (human) HL-60(TB) cells assessed as growth inhibition at 10 uM after 48 hr by coulter counter analysis; details: HL-60, 48 h, read-out: GI
[18] = tested on: CCRF-CEM; experiment: Cytotoxicity against Homo sapiens (human) CCRF-CEM cells assessed as growth inhibition at 10 uM after 48 hr by coulter counter analysis; details: read-out: GI
[19] = tested on: SW-620; experiment: Cytotoxicity against Homo sapiens (human) SW620 cells assessed as growth inhibition at 10 uM after 48 hr by coulter counter analysis; details: SW-620, 48 h, read-out: GI
[20] = tested on: HT-29; experiment: Cytotoxicity against Homo sapiens (human) HT-29 cells assessed as growth inhibition at 10 uM after 48 hr by coulter counter analysis; details: HT-29, 48 h, read-out: GI
[21] = tested on: HCT-116; experiment: Cytotoxicity against Homo sapiens (human) HCT116 cells assessed as growth inhibition at 10 uM after 48 hr by coulter counter analysis; details: HCT-116, 48 h, read-out: GI
[22] = tested on: HCC 2998; experiment: Cytotoxicity against Homo sapiens (human) HCC2998 cells assessed as growth inhibition at 10 uM after 48 hr by coulter counter analysis; details: HCC 2998, 48 h, read-out: GI
[23] = tested on: COLO 205; experiment: Cytotoxicity against Homo sapiens (human) COLO205 cells assessed as growth inhibition at 10 uM after 48 hr by coulter counter analysis; details: COLO 205, 48 h, read-out: GI
[24] = tested on: NCI-H522; experiment: Cytotoxicity against Homo sapiens (human) NCI-H522 cells assessed as growth inhibition at 10 uM after 48 hr by coulter counter analysis; details: NCI-H522, 48 h, read-out: GI
[25] = tested on: NCI-H460; experiment: Cytotoxicity against Homo sapiens (human) NCI-H460 cells assessed as growth inhibition at 10 uM after 48 hr by coulter counter analysis; details: NCI-H460, 48 h, read-out: GI
[26] = tested on: NCI-H23; experiment: Cytotoxicity against Homo sapiens (human) NCI-H23 cells assessed as growth inhibition at 10 uM after 48 hr by coulter counter analysis; details: NCI-H23, 48 h, read-out: GI
[27] = tested on: NCI-H226; experiment: Cytotoxicity against Homo sapiens (human) NCI-H226 cells assessed as growth inhibition at 10 uM after 48 hr by coulter counter analysis; details: NCI-H226, 48 h, read-out: GI
[28] = tested on: HOP-92; experiment: Cytotoxicity against Homo sapiens (human) HOP92 cells assessed as growth inhibition at 10 uM after 48 hr by coulter counter analysis; details: HOP-92, 48 h, read-out: GI
[29] = tested on: EKVX; experiment: Cytotoxicity against Homo sapiens (human) EKVX cells assessed as growth inhibition at 10 uM after 48 hr by coulter counter analysis; details: read-out: GI
[30] = tested on: HOP-62; experiment: Cytotoxicity against Homo sapiens (human) HOP62 cells assessed as growth inhibition at 10 uM after 48 hr by coulter counter analysis; details: HOP-62, 48 h, read-out: GI
[31] = tested on: A549; experiment: Cytotoxicity against Homo sapiens (human) A549 cells assessed as growth inhibition at 10 uM after 48 hr by coulter counter analysis; details: A549, 48 h, read-out: GI
[32] = tested on: SR; experiment: Cytotoxicity against Homo sapiens (human) SR cells assessed as growth inhibition at 10 uM after 48 hr by coulter counter analysis; details: read-out: GI
[33] = tested on: RPMI-8226; experiment: Cytotoxicity against Homo sapiens (human) RPMI8226 cells assessed as growth inhibition at 10 uM after 48 hr by coulter counter analysis; details: RPMI-8226, 48 h, read-out: GI
[34] = tested on: K562; experiment: Cytotoxicity against Homo sapiens (human) K562 cells assessed as growth inhibition at 10 uM after 48 hr by coulter counter analysis; details: K562, 48 h, read-out: GI

SMILES	inhibition of growth at 10 µM [1] [%]	inhibition of growth at 10 µM [2] [%]	inhibition of growth at 10 µM [3] [%]	inhibition of growth at 10 µM [4] [%]	inhibition of growth at 10 µM [5] [%]	inhibition of growth at 10 µM [6] [%]	inhibition of growth at 10 µM [7] [%]	inhibition of growth at 10 µM [8] [%]	inhibition of growth at 10 µM [9] [%]	inhibition of growth at 10 µM [10] [%]	inhibition of growth at 10 µM [11] [%]	inhibition of growth at 10 µM [12] [%]	inhibition of growth at 10 µM [13] [%]	inhibition of growth at 10 µM [14] [%]	inhibition of growth at 10 µM [15] [%]	inhibition of growth at 10 µM [16] [%]	inhibition of growth at 10 µM [17] [%]	inhibition of growth at 10 µM [18] [%]	inhibition of growth at 10 µM [19] [%]	inhibition of growth at 10 µM [20] [%]	further results
COc1ccc(C2C3=C(CCCC3)Nc3nc(CC#N)[nH]c(=O)c32)cc1OC (configuration not stated)	< 10	< 10	< 10	< 10	< 10	< 10	< 10	< 10	< 10	< 10	< 10	< 10	< 10	< 10	< 10	< 10	< 10	< 10	< 10	< 10	inhibition of growth at 10 µM [21]: < 10%; inhibition of growth at 10 µM [22]: < 10%; inhibition of growth at 10 µM [23]: < 10%; inhibition of growth at 10 µM [24]: < 10%; inhibition of growth at 10 µM [25]: < 10%; inhibition of growth at 10 µM [26]: < 10%; inhibition of growth at 10 µM [27]: 11.3%; inhibition of growth at 10 µM [28]: < 10%; inhibition of growth at 10 µM [29]: < 10%; inhibition of growth at 10 µM [30]: < 10%; inhibition of growth at 10 µM [31]: < 10%; inhibition of growth at 10 µM [32]: < 10%; inhibition of growth at 10 µM [33]: < 10%; inhibition of growth at 10 µM [34]: < 10%
O=c1[nH]c(-c2ccccc2)nc2c1C(c1ccc(Cl)cc1)C1=C(CCCC1)N2 (configuration not stated)	< 10	< 10	< 10	< 10	< 10	< 10	< 10	< 10	17.8	15.5	< 10	< 10	< 10	11.4	< 10	< 10	< 10	< 10	< 10	< 10	inhibition of growth at 10 µM [21]: < 10%; inhibition of growth at 10 µM [22]: < 10%; inhibition of growth at 10 µM [23]: < 10%; inhibition of growth at 10 µM [24]: 20.2%; inhibition of growth at 10 µM [25]: < 10%; inhibition of growth at 10 µM [26]: < 10%; inhibition of growth at 10 µM [27]: 12.3%; inhibition of growth at 10 µM [28]: 12%; inhibition of growth at 10 µM [29]: < 10%; inhibition of growth at 10 µM [30]: < 10%; inhibition of growth at 10 µM [31]: < 10%; inhibition of growth at 10 µM [32]: < 10%; inhibition of growth at 10 µM [33]: < 10%; inhibition of growth at 10 µM [34]: 11.2%
CN(C)c1ccc(-c2nc3c(c(=O)[nH]2)C(c2ccc(Cl)cc2)C2=C(CCCC2)N3)cc1 (configuration not stated)	< 10	10	< 10	< 10	< 10	< 10	11.1	< 10	< 10	17.6	< 10	< 10	14.6	< 10	< 10	< 10	< 10	< 10	< 10	< 10	inhibition of growth at 10 µM [21]: < 10%; inhibition of growth at 10 µM [22]: < 10%; inhibition of growth at 10 µM [23]: 10.2%; inhibition of growth at 10 µM [24]: 15.8%; inhibition of growth at 10 µM [25]: < 10%; inhibition of growth at 10 µM [26]: 12.4%; inhibition of growth at 10 µM [27]: < 10%; inhibition of growth at 10 µM [28]: 35.9%; inhibition of growth at 10 µM [29]: < 10%; inhibition of growth at 10 µM [30]: 12.8%; inhibition of growth at 10 µM [31]: < 10%; inhibition of growth at 10 µM [32]: < 10%; inhibition of growth at 10 µM [33]: < 10%; inhibition of growth at 10 µM [34]: < 10%
